Where two headings read alike, the source gives them in different places.
How the values were obtained:
Type in all cases: cell-based
HCV replicon 2A = experiment: HCV Rep 2A EC50 (replicon luciferase); conditions: Hepatitis C virus, 72 h
Description: (§1) Compounds were serially diluted in ten steps of 1:3 dilutions in 384-well plates. All serial dilutions were performed in four replicates per compound within the same 384-well plate. […] To each well of a black polystyrene 384-well plate (Greiner Bio-one, Monroe, NC), 90 μL of cell culture medium (without Geneticin) containing 2000 suspended HCV replicon cells was added with a Biotek μFlow workstation. For compound transfer into cell culture plates, 0.4 μL of compound solution from the compound serial dilution plate was transferred to the cell culture plate on a Biomek FX workstation. The DMSO concentration in the final assay wells was 0.44%. The plates were incubated for 3 days at 37° C. with 5% CO2 and 85% humidity. The HCV replicon assay was a multiplex assay, able to assess both cytotoxicity and antireplicon activity from the same well. The CC50 assay was performed first. The media in the 384-well cell culture plate was aspirated, and the wells were washed four times with 100 μL of PBS each, using a Biotek ELX405 plate washer. A volume of 50 μL of a solution containing 400 nM calcein AM (Anaspec, Fremont, CA) in 1×PBS was added to each well of the plate with a Biotek μFlow workstation. The plate was incubated for 30 min at room temperature before the fluorescence signal (excitation 490 nm, emission 520 nm) was measured with a Perkin-Elmer Envision plate reader. The EC50 assay was performed in the same wells as the CC50 assay. The calcein-PBS solution in the 384-well cell culture plate was aspirated with a Biotek ELX405 plate washer. A volume of 20 μL of Dual-Glo luciferase buffer (Promega, Madison, WI) was added to each well of the plate with a Biotek μFlow Workstation. The plate was incubated for 10 min at room temperature. A volume of 20 μL of a solution containing a 1:100 mixture of Dual-Glo Stop & Glo substrate (Promega, Madison, WI) and Dual-Glo Stop & Glo buffer (Promega, Madison, WI) was added to each well of the plate with a Biotek μFlow Workstation. The plate was then incubated at room temperature for 10 min before the luminescence signal was measured with a Perkin-Elmer Envision Plate Reader.

RSV A strain A2 = experiment: RSV HAE EC50 (intracellular RSV RNA by real-time PCR in HAE cells); conditions: human respiratory syncytial virus, 72 h, read-out: RSV HAE EC50
Description: HAE cells are cultured at the air-liquid interface and have an apical side that is exposed to the air and a basal side that is in contact with the medium. Prior to experimentation, HAE were removed from their agar-based shipping packaging and were acclimated to 37° C./5% CO2 overnight in 1 ml of HAE Assay medium (AIR-100-MM, Mattek Corp). HAE were prepared for infection by washing the apical surface twice with 400 μL of PBS (either utilizing direct pipetting methods or by running each transwell through a trough containing PBS) to remove the mucus layer. Apical chambers were drained of PBS and tapped gently onto absorbent material to remove as much PBS as possible. After washing, the cells were transferred to fresh HAE maintenance media containing 4-fold serially diluted compound, delivered to the basal side of the cell monolayer, and apically infected with 100 μL of a 1:600 dilution of RSV A strain A2 1000× stock (ABI, Columbia, MD, cat #10-124-000) in HAE assay medium for 3 hours at 37° C. in 5% CO2. The virus inoculum was removed and the apical surface of the cells was washed 3 times with PBS using either method previously described. The cells were then cultured in the presence of compound for 3 days at 37° C. Following the incubation, total RNA was extracted from the HAE cells using a MagMAX-96 Viral RNA isolation kit (Applied Biosystems, Foster City, CA, Cat #AM1836) and intracellular RSV RNA was quantified by real-time PCR. Approximately 25 ng of purified RNA was added to a PCR reaction mixture that contained 0.9 μM RSV N Forward and RSV N Reverse primers, 0.2 μM RSV N Probe and 1×Taqman RNA-to-Ct 1-Step Kit (Applied Biosystems, Foster City, CA, Cat #4392938). RNA levels were normalized using a Tagman GAPDH control primer set (Applied Biosystems, Foster City, CA, Cat #402869). Real-Time PCR Primers and Probe Used in the RSV A2 HAE Antiviral Assay: […]

HCV replicon 1B = experiment: HCV Rep 1B EC50 (replicon luciferase); conditions: Hepatitis C virus, 72 h
Description: as §1

[1] = tested on: Dengue serotype 2 New Guinea C (NGC) strain; experiment: DENV-2 Huh-7 EC50 (qPCR in Huh7 cells); conditions: Dengue virus, DENV2, Huh-7, 48 h
How it was run: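 Huh7 cells infected 2 h at 37 °C with DENV-2 NGC at MOI 0.1, then plated with graded compound doses (0.25% DMSO) in triplicate. After 48 h, viral RNA quantified by duplex TaqMan RT-qPCR against GAPDH; EC50 normalized to positive control and no-compound wells.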

[2] = tested on: Dengue 2, New Guinea strain (NGC); experiment: DENV-2 moDC EC50 (qPCR in human monocyte-derived dendritic cells); conditions: Dengue virus, DENV2, Dendritic cell, moDCs
Description: Human monocyte-derived dendritic cells (moDCs) were derived from CD14+ monocytes (AllCells) cultured in Human Mo-DC Differentiation medium containing GM-CSF and IL-4 (Miltenyi Biotec). On day 7, moDCs were harvested by mechanical disruption, washed and suspended in serum-free RPMI. moDCs were infected with Vero-derived Dengue 2, New Guinea strain (NGC) at a MOI=0.1 for two hours in serum-free RPMI with gentle agitation at 37° C. Cells were washed and resuspended in 10% serum-containing RPMI (Gibco, supplemented with sodium pyruvate, NEAA, Penicillin-Streptomycin). 10^5 cells were plated in triplicate in 96-well plates with compounds dispensed at graded doses (Hewlett-Packard D300 Digital Dispenser). All wells were normalized to 0.25% DMSO. At 48 hours, cells were washed with 1×PBS and all supernatants removed. Total RNA was extracted using RNEasy 96 plates (Qiagen) and used to generate first-strand cDNA using XLT cDNA 5× Supermix (QuantaBio). cDNA was used as a template in a Taqman qPCR duplex reaction specific to DENV2 viral and GAPDH gene expression. EC50 values were determined using Prism Graphpad software, with normalization to a positive control and no compound negative control wells.

[3] = read-out: HCV Rep 2A EC50, replicon cells, 3 days
[4] = read-out: HCV Rep 1B EC50, replicon cells, 3 days
[5] = replicon cells, 3 days, read-out: HCV Rep 2A EC50
[6] = replicon cells, 3 days, read-out: HCV Rep 1B EC50

| SMILES | EC50 (HCV replicon 2A; [3]) | EC50 (RSV A strain A2; HAE) | EC50 (HCV replicon 1B; [4]) | EC50 [1] | EC50 ([2]; 48 h) | EC50 (HCV replicon 2A; [5]) | EC50 (RSV A strain A2; HAE cells, RSV A2, 3 days) | EC50 (HCV replicon 1B; [6]) | EC50 ([2]; 48 hours) |
| --- | --- | --- | --- | --- | --- | --- | --- | --- | --- |
| C[C@H](N[P@](=O)(OC[C@@]1(C#N)O[C@@H](c2ccc3c(N)ncnn23)[C@H](O)[C@@H]1O)Oc1ccccc1)C(=O)O[C@H]1CC[C@H](C(F)(F)F)CC1 (single isomer, unassigned) [Example 18] | 1480 nM | 27 nM | 1110 nM |  |  |  |  |  |  |
| CCCCCCCCCCCCOC(=O)[C@H](C)NP(=O)(OC[C@@]1(C#N)O[C@@H](c2ccc3c(N)ncnn23)[C@H](O)[C@@H]1O)Oc1ccccc1 (stereo partly drawn) [Example 191, dodecyl ((((2R,3S,4R,5S)-5-(4-aminopyrrolo[2,1-f][1,2,4]triazin-7-yl)-2-cyano-3,4-dihydroxytetrahydrofuran-2-yl)methoxy)(phenoxy)phosphoryl)-L-alaninate] | 34100 nM | 11 nM | 19700 nM | 13300 nM | 1070 nM |  |  |  |  |
| CCCCCCCCCCCCCCCCOCCCOP(=O)(O)OC[C@@]1(C#N)O[C@@H](c2ccc3c(N)ncnn23)[C@H](O)[C@@H]1O [Example 149, ((2R,3S,4R,5S)-5-(4-aminopyrrolo[2,1-f][1,2,4]triazin-7-yl)-2-cyano-3,4-dihydroxytetrahydrofuran-2-yl)methyl (3-(hexadecyloxy)propyl) hydrogen phosphate] |  |  |  |  |  | > 44400 nM | 188 nM | 31100 nM |  |
| CCCCCCCCCCCCCCCCCCOC[C@H](COP(=O)(O)OC[C@@]1(C#N)O[C@@H](c2ccc3c(N)ncnn23)[C@H](O)[C@@H]1O)OCc1ccccc1 [Example 96, ((2R,3S,4R,5S)-5-(4-aminopyrrolo[2,1-f][1,2,4]triazin-7-yl)-2-cyano-3,4-dihydroxytetrahydrofuran-2-yl)methyl ((R)-2-(benzyloxy)-3-(octadecyloxy)propyl) hydrogen phosphate] |  |  |  |  |  | 47300 nM | 22400 nM | 30700 nM | > 25000 nM |
| CCCCCCCCCCCC(=O)OCCNP(=O)(OC[C@@]1(C#N)O[C@@H](c2ccc3c(N)ncnn23)[C@H](O)[C@@H]1O)Oc1ccccc1 (mixture of isomers) [Example 181, 2-(((((2R,3S,4R,5S)-5-(4-aminopyrrolo[2,1-f][1,2,4]triazin-7-yl)-2-cyano-3,4-dihydroxytetrahydrofuran-2-yl)methoxy)(phenoxy)phosphoryl)amino)ethyl dodecanoate] | 1680 nM | 212 nM | 861 nM | 795 nM |  |  |  |  |  |
| CCC(CC)COC(=O)[C@H](C)N[P@](=O)(OC[C@@]1(C#N)O[C@@H](c2ccc3c(N)ncnn23)[C@H](O)[C@@H]1O)Oc1ccccc1 (single isomer, unassigned) [Example 25] | 448 nM | 152 nM | 443 nM | 840 nM | 524 nM |  |  |  |  |
| C[C@H](N[P@](=O)(OC[C@@]1(C#N)O[C@@H](c2ccc3c(N)ncnn23)[C@H](O)[C@@H]1O)Oc1ccccc1)C(=O)O[C@H]1CC[C@H](C(C)(C)C)CC1 (single isomer, unassigned) [Example 22] |  | 19 nM |  | 665 nM |  |  |  |  |  |
| C[C@H](N[P@](=O)(OC[C@@]1(C#N)O[C@@H](c2ccc3c(N)ncnn23)[C@H](O)[C@@H]1O)Oc1ccccc1)C(=O)OC1CCCCC1 (single isomer, unassigned) [Example 6] | 1270 nM | 20 nM | 793 nM | 1630 nM | > 6190 nM |  |  |  |  |

— patent US20230295201A1 (Gilead Sciences, Inc., priority 2020, published 2023)
